The text below walks through data of US20240150369A1, “CYCLIN-DEPENDENT KINASE INHIBITING COMPOUNDS FOR THE TREATMENT OF MEDICAL DISORDERS” (G1 Therapeutics, Inc., priority 2020, published 2024).

pIC50: −log10 of the molar value.

What all share (type): biochemical
Test [1] deals with CDK2/Cyclin A (Homo sapiens (Human), UniProt P24941). Kind of test: CDK2/Cyclin A kinase assay (Nanosyn, Caliper microfluidic). To be noted: 12-point dose-response, singlicate, at Km for ATP; ATP 50 μM; 3 hr. On the procedure:
(§1) Selected compounds disclosed herein were tested in kinase assays by Nanosyn (Santa Clara, CA) to determine their inhibitory effect on these CDKs. The assays were performed using microfluidic kinase detection technology (Caliper Assay Platform). The compounds were tested in 12-point dose-response format in singlicate at Km for ATP. Specifics of each assay are as described below:
CDK2/Cyclin A: Enzyme concentration: 0.1 nM; ATP concentration: 50 μM; Incubation time: 3 hr.

Test [2] has as its target CDK2/Cyclin E (Homo sapiens (Human), UniProt P24941). Kind of test: CDK2/Cyclin E kinase assay (Nanosyn, Caliper microfluidic). To be noted: 12-point dose-response, singlicate, at Km for ATP; ATP 100 μM; 3 hr. Here is the method: as §1
CDK2/Cyclin E: Enzyme concentration: 0.15 nM; ATP concentration: 100 μM; Incubation time: 3 hr.

The target in test [3] is CDK4/Cyclin D1 (Homo sapiens (Human), UniProt P11802). As to the kind of experiment: CDK4/Cyclin D1 kinase assay (Nanosyn, Caliper microfluidic). To be noted: 12-point dose-response, singlicate, at Km for ATP; ATP 200 μM; 3 hr. Here is the method:
as §1
CDK4/Cyclin D1: Enzyme concentration: 1 nM; ATP concentration: 200 μM; Incubation time: 3 hr.

Test [4] concerns the target CDK6/Cyclin D3 (Homo sapiens (Human), UniProt Q00534). Kind of test: CDK6/Cyclin D3 kinase assay (Nanosyn, Caliper microfluidic). To be noted: 12-point dose-response, singlicate, at Km for ATP; ATP 300 μM; 3 hr. On the procedure: as §1
CDK6/Cyclin D3: Enzyme concentration: 2 nM; ATP concentration: 300 μM; Incubation time: 3 hr.

The target of test [5] is CDK9/Cyclin T1 (Homo sapiens (Human), UniProt P50750). As to the kind of experiment: CDK9/Cyclin T1 kinase assay (Nanosyn, Caliper microfluidic). The conditions noted are these: 12-point dose-response, singlicate, at Km for ATP; ATP 10 μM; 17 hr. On the procedure:
as §1
CDK9/Cyclin T1: Enzyme concentration: 5 nM; ATP concentration: 10 μM; Incubation time: 17 hr.

Test [6] has as its target CDK1/Cyclin B1 (Homo sapiens (Human), UniProt P06493). As to the kind of experiment: CDK1/Cyclin B1 kinase assay (Nanosyn, Caliper microfluidic). The conditions noted are these: 12-point dose-response, singlicate, at Km for ATP; ATP 40 μM; 3 hr. Here is the method:
as §1
CDK1/Cyclin B1: Enzyme concentration: 0.08 nM; ATP concentration: 40 μM; Incubation time: 3 hr.

In test [7] the target is CDK3-CYCLIN-E (Homo sapiens (Human), UniProt Q00526). As to the kind of experiment: CDK3-Cyclin-E kinase assay (Nanosyn, Caliper microfluidic). The conditions noted are these: 12-point dose-response, singlicate, at Km for ATP. On the procedure: (§2) Selected compounds disclosed herein were tested in kinase assays by Nanosyn (Santa Clara, CA) to determine their inhibitory effect on these CDKs. The assays were performed using microfluidic kinase detection technology (Caliper Assay Platform). The compounds were tested in 12-point dose-response format in singlicate at Km for ATP.

The target in test [8] is CDK5-p25 (Homo sapiens (Human), UniProt Q00535). As to the kind of experiment: CDK5-p25 kinase assay (Nanosyn, Caliper microfluidic). To be noted: 12-point dose-response, singlicate, at Km for ATP. On the procedure: as §2
In test [9] the target is CDK7 (Homo sapiens (Human), UniProt P50613). Kind of test: CDK7 kinase assay (Nanosyn, Caliper microfluidic). The conditions noted are these: 12-point dose-response, singlicate, at Km for ATP. Here is the method: as §2

The pIC50 is the IC50 on a negative log10 scale, so that one unit is a factor of ten. A low value points to a high IC50.

CDK1/Cyclin B1, sequence (P06493 whole entry): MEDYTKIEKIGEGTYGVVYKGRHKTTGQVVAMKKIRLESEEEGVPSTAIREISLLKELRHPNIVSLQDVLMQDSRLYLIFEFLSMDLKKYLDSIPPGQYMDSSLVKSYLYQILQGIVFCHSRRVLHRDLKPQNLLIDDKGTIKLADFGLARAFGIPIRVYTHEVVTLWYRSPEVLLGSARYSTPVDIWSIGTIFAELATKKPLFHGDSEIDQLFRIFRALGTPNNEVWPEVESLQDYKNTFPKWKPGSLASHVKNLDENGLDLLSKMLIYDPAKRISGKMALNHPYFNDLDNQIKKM
CDK1/Cyclin B1, sequence (P14635 whole entry partner): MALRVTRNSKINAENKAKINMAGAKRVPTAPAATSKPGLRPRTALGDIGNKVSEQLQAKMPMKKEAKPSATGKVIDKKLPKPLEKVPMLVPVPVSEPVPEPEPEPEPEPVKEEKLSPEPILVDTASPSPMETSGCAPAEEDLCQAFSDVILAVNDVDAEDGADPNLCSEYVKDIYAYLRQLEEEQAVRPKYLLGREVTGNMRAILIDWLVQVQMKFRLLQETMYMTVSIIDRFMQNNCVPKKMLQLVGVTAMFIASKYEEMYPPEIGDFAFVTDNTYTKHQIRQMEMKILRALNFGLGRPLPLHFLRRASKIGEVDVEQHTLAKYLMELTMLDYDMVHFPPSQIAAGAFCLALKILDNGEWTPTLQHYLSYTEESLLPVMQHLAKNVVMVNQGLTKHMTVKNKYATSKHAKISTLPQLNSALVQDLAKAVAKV
CDK7, sequence (P50613 whole entry): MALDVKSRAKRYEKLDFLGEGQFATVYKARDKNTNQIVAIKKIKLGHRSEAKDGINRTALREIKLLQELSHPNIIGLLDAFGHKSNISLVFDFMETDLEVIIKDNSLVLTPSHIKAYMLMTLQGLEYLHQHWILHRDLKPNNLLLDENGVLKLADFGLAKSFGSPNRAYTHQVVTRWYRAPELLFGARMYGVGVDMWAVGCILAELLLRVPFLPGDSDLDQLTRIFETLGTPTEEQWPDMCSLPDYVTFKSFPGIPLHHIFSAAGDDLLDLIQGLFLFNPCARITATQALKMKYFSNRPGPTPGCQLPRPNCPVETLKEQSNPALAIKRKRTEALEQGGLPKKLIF
CDK7, sequence (P51946 whole entry partner): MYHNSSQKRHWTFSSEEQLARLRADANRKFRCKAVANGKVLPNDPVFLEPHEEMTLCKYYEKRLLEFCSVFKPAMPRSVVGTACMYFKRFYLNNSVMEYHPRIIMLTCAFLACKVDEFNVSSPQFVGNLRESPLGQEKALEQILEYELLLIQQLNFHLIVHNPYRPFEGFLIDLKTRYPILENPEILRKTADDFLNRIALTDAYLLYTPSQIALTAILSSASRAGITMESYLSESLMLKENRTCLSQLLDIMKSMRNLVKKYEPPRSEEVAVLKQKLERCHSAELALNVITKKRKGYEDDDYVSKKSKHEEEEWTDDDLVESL
CDK7, sequence (P51948 whole entry partner): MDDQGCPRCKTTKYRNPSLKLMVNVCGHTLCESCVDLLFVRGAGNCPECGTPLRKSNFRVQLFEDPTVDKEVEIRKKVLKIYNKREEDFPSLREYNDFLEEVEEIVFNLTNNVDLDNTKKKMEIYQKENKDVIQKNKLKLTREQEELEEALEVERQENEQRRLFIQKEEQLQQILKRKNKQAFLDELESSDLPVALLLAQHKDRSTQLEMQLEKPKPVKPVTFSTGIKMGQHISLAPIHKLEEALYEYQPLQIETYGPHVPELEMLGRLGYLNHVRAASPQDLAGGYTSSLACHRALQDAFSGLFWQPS
CDK6/Cyclin D3, sequence (Q00534 whole entry): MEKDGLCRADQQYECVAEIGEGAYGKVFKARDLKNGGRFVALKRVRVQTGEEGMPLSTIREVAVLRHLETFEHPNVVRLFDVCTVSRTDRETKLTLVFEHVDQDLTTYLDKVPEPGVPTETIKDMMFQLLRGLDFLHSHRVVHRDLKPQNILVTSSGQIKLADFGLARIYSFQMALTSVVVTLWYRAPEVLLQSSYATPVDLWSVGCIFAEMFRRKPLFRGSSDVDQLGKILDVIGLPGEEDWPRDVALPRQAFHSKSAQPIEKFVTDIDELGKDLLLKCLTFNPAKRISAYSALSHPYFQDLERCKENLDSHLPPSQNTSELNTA
CDK6/Cyclin D3, sequence (P30281 whole entry partner): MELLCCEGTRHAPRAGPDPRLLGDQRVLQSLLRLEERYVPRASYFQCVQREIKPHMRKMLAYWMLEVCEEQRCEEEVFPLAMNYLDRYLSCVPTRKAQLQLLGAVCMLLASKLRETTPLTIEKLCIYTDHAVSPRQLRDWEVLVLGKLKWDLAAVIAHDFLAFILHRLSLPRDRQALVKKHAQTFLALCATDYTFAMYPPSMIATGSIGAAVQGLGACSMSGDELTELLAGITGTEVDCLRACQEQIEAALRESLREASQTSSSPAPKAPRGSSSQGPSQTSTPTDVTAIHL
CDK9/Cyclin T1, sequence (P50750 whole entry): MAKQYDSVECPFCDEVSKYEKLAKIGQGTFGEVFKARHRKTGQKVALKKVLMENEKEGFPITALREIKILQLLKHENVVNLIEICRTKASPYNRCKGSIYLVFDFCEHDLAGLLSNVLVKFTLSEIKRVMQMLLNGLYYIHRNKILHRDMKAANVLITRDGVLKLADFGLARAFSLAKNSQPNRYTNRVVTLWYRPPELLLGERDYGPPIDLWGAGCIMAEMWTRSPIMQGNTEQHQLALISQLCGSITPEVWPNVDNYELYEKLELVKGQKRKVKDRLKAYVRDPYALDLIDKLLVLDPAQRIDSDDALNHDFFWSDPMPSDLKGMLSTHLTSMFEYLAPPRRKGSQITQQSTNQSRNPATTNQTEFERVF
CDK9/Cyclin T1, sequence (O60563 whole entry partner): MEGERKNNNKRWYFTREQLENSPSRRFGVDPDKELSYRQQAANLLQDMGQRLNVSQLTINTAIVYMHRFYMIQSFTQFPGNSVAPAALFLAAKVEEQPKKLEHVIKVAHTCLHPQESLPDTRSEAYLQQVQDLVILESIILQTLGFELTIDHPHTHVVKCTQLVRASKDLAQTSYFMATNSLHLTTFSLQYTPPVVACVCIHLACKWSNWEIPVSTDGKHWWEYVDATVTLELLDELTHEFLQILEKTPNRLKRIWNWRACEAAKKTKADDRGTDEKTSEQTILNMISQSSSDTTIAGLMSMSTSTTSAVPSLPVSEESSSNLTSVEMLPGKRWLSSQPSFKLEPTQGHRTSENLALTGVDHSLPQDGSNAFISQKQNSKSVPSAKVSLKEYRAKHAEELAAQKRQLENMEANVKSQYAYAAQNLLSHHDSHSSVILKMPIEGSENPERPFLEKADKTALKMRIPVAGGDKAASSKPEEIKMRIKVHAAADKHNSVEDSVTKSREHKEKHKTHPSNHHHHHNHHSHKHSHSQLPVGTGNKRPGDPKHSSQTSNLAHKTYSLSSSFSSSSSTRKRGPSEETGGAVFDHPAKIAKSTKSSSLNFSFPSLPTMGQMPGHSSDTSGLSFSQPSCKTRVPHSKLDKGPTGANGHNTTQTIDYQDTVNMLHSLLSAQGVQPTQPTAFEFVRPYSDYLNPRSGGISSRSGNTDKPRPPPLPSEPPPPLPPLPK
CDK4/Cyclin D1, sequence (P11802 whole entry): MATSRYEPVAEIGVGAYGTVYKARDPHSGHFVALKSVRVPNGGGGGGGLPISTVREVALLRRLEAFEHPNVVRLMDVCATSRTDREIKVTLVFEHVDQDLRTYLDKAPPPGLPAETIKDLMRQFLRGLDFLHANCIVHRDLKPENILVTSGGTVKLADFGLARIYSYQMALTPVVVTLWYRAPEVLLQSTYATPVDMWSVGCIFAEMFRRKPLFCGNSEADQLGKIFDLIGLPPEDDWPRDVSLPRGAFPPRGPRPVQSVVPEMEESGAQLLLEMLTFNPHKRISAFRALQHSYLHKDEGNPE
CDK4/Cyclin D1, sequence (P24385 whole entry partner): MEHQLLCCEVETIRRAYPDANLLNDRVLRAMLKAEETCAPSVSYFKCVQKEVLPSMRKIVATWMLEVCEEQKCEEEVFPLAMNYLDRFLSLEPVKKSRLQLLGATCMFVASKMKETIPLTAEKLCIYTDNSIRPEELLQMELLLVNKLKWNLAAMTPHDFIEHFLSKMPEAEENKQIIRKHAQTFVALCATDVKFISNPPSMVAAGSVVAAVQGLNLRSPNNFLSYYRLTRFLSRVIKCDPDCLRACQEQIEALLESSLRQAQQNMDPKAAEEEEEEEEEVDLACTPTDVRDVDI
CDK5-p25, sequence (Q00535 whole entry): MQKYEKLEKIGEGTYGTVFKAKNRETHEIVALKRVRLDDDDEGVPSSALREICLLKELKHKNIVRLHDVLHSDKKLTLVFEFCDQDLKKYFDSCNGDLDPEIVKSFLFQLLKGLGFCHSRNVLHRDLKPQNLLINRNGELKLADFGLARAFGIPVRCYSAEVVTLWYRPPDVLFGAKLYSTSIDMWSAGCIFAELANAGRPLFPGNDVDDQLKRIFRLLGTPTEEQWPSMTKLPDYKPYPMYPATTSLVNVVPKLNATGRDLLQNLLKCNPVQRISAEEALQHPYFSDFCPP
CDK5-p25, sequence (Q15078 99-307 partner): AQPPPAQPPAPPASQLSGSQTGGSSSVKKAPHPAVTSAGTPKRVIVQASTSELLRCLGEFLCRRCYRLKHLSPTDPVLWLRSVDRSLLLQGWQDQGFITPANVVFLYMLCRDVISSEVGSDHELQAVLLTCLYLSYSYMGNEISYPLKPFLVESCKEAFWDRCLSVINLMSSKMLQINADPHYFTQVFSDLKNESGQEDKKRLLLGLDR

Turning to `NS(=O)(=O)c1ccc(Nc2ncc3cc4n(c3n2)C2(CCCCC2)C(=O)NC4O)cc1` (stereo not shown) [Compound 1, 4-((6′-hydroxy-8′-oxo-7′,8′-dihydro-6′H-spiro[cyclohexane-1,9′-pyrazino[1′,2′:1,5]pyrrolo[2,3-d]pyrimidin]-2'-yl)amino)benzenesulfonamide], the pIC50 in [1] was 9.80; in test [2] it was 9.47; in [3] it was 8.51; in test [4], 8.12; in test [5], 8.85; in [6], 8.66. For the same compound, the pIC50 in test [7] was 9.03; in test [8], 9.10; in test [9], 6.25.

Turning to `NS(=O)(=O)c1ccc(Nc2ncc3cc4n(c3n2)C2(CCCCC2)CC(=O)N4)cc1` [Compound 2, 4-((7′-oxo-7′,8′-dihydro-6′H-spiro[cyclohexane-1,9′-pyrrolo[1,5-a:2,3-d′]dipyrimidin]-2′-yl)amino)benzenesulfonamide], the pIC50 in test [1] is 9.40; in test [2], 9.30; in test [3], 7.39; in test [4] it was 7.01; in test [5] it was 8.35; in test [6], 8.43. Further, the figures for the pIC50 in test [7], in test [8] and in test [9] were 8.55, 8.89 and 6.70, respectively.

Consider `CN1CCN(S(=O)(=O)c2ccc(Nc3ncc4cc5n(c4n3)C3(CCCCC3)CC(=O)N5)cc2)CC1` [Compound 51, 2′-((4-((4-methylpiperazin-1-yl)sulfonyl)phenyl)amino)-6′H-spiro[cyclohexane-1,9′-pyrrolo[1,5-a:2,3-d′]dipyrimidin]-7′(8′H)-one], for which the pIC50 is 8.40 in test [1]; 8.30 in [2]; 7.39 in [3]; 7.20 in [4]; 8.30 in test [5]; 7.51 in test [6]. The pIC50 was 7.64 in test [7] and 7.18 in test [9].

Consider `CN1CCN(C(=O)c2ccc(Nc3ncc4cc5n(c4n3)C3(CCCCC3)C(=O)NN5)cc2)CC1` [Compound 52, 7′-((4-(4-methylpiperazine-1-carbonyl)phenyl)amino)-1′,2′-dihydro-3′H-spiro[cyclohexane-1,4′-pyrimido[5′,4′:4,5]pyrrolo[2,1-c][1,2,4]triazin]-3′-one], for which the pIC50 in test [1] was 7.74; in test [2], 8.35; in test [3], 7.57; in [4], 7.12; in test [5] it was 6.50; in test [6] it was 6.62. For the same compound, the figures for the pIC50 in test [7] and in test [9] were 7.12 and under 6.00, respectively.

As for `CN1CCN(C(=O)c2ccc(Nc3ncc4cc5n(c4n3)C3(CCCCC3)C(=O)NC5O)cc2)CC1` (stereo not shown) [Compound 53, 6′-hydroxy-2′-((4-(4-methylpiperazine-1-carbonyl)phenyl)amino)-6′,7′-dihydro-8′H-spiro[cyclohexane-1,9′-pyrazino[1′,2′:1,5]pyrrolo[2,3-d]pyrimidin]-8′-one], the pIC50 in test [1] is 8.70; in [2] it was 8.40; in test [3], 8.70; in [4], 8.30; in [5] it was 8.00; in [6], 7.57. In addition, the pIC50 is 8.00 in test [7] and 6.21 in test [9].

For `CN1CCN(C(=O)c2ccc(Nc3ncc4cc5n(c4n3)C3(CCCCC3)CC(=O)N5)cc2)CC1` [Compound 54, 2′-((4-(4-methylpiperazine-1-carbonyl)phenyl)amino)-6′H-spiro[cyclohexane-1,9′-pyrrolo[1,5-a:2,3-d′]dipyrimidin]-7′(8′H)-one], the pIC50 in [1] is 8.70; in test [2], 9.00; in test [3], 8.52; in test [4] it was 8.15; in test [5] it was 8.15; in [6], 7.92. Besides, the negative-log IC50 (pIC50) is 8.10 in [7] and 6.84 in [9].

For the compound `O=C1NCC2(CCCCC2)n2c1cc1cnc(Nc3ccc(C(=O)N4CCNCC4)cc3)nc12` [Compound 55, 2′-((4-(piperazine-1-carbonyl)phenyl)amino)-7′,8′-dihydro-6′H-spiro[cyclohexane-1,9′-pyrazino[1′,2′:1,5]pyrrolo[2,3-d]pyrimidin]-6′-one], the pIC50 in test [1] is 9.22; in [2], 9.00; in test [3], 9.52; in test [4], 9.40; in test [5], 9.00; in [6], 8.30. In addition, the figures for the pIC50 in test [7] and in test [9] were 8.22 and 7.57, respectively.

For the compound `CC1C(=O)Nc2cc3cnc(Nc4ccc(S(=O)(=O)N5CCN(C)CC5)cc4)nc3n2C12CCCCC2` (stereo not shown) [Compound 59, 8′-methyl-2′-((4-((4-methylpiperazin-1-yl)sulfonyl)phenyl)amino)-6′H-spiro[cyclohexane-1,9′-pyrrolo[1,5-a:2,3-d′]dipyrimidin]-7′(8′H)-one], the pIC50 in test [1] was 8.30; in [2], 8.52; in test [3] it was 6.86; in test [4], 6.91; in test [5], 8.30; in [6] it was 7.38. Further, the pIC50 in [7] is 7.24; in test [9], 7.80.

For the compound `O=C(c1ccc(Nc2ncc3cc4n(c3n2)C2(CCCCC2)C(=O)NN4)cc1)N1CCNCC1` [Compound 61, 7′-((4-(piperazine-1-carbonyl)phenyl)amino)-1′,2′-dihydro-3′H-spiro[cyclohexane-1,4′-pyrimido[5′,4′:4,5]pyrrolo[2,1-c][1,2,4]triazin]-3′-one], the pIC50 in test [1] is 7.77; in test [2], 8.40; in test [3], 7.77; in test [4], 7.40; in [5] it was 6.72; in test [6], 6.88. The pIC50 is 7.24 in [7] and under 6.00 in test [9].

For `CN(C)C(=O)c1ccc(Nc2ncc3cc4n(c3n2)C2(CCCCC2)C(=O)NN4)cc1` [Compound 62, N,N-dimethyl-4-((3′-oxo-2′,3′-dihydro-1′H-spiro[cyclohexane-1,4′-pyrimido[5′,4′:4,5]pyrrolo[2,1-c][1,2,4]triazin]-7′-yl)amino)benzamide], the pIC50 is 7.21 in test [1]; 7.85 in [2]; 7.09 in test [3]; 6.67 in test [4]; 6.40 in test [5]; 6.14 in test [6]. Further, the pIC50 in test [7] was 6.73; in test [9], under 6.00.

Consider `NC(=O)c1ccc(Nc2ncc3cc4n(c3n2)C2(CCCCC2)C(=O)NN4)cc1` [Compound 63, 4-((3′-oxo-2′,3′-dihydro-1′H-spiro[cyclohexane-1,4′-pyrimido[5′,4′:4,5]pyrrolo[2,1-c][1,2,4]triazin]-7′-yl)amino)benzamide], for which the pIC50 in [1] is 7.09; in test [2], 7.48; in [3], 6.60; in [4], 6.24; in [5] it was 6.93; in test [6], 6.24. The pIC50 is 7.02 in [7] and 6.24 in test [9].

For `CNC(=O)c1ccc(Nc2ncc3cc4n(c3n2)C2(CCCCC2)C(=O)NN4)cc1` [Compound 64, N-methyl-4-((3′-oxo-2′,3′-dihydro-1′H-spiro[cyclohexane-1,4′-pyrimido[5′,4′:4,5]pyrrolo[2,1-c][1,2,4]triazin]-7′-yl)amino)benzamide], the pIC50 in [1] is 7.07; in test [2] it was 7.64; in test [3], 6.88; in [4], 6.38; in [5] it was 7.07; in test [6], 6.30. In addition, the pIC50 was 6.98 in test [7] and under 6.00 in test [9].

For the compound `O=C(c1ccc(Nc2ncc3cc4n(c3n2)C2(CCCCC2)C(=O)NN4)cc1)N1CCOCC1` [Compound 74, 7′-((4-(morpholine-4-carbonyl)phenyl)amino)-1′,2′-dihydro-3′H-spiro[cyclohexane-1,4′-pyrimido[5′,4′:4,5]pyrrolo[2,1-c][1,2,4]triazin]-3′-one], the pIC50 in test [1] is 7.54; in test [2] it was 8.10; in [3] it was 7.22; in test [4], 6.86; in test [5], 6.19; in [6] it was 6.59. Besides, the pIC50 in test [7] was 6.97; in [9] it was under 6.00.
